Measurements reported in ChEMBL document CHEMBL1201862, “PubChem BioAssay data set” (2004).
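1) Cells in 96-well plates. 2) Compound, 48 h, 5 concentrations. 3) Linear interpolation between surrounding doses. 4) Unreached endpoint = highest concentration. At the GI50, growth is halved.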 Calls of active or inactive are those of the source. Cut-off read from the data, not from the text of the source: active = GI50 up to about 1.1 µM and inactive = higher.

Assays:
Experiment in all cases: inhibition of tumour cell growth, NCI panel, 48 h
UACC-257 = test system: UACC-257
LOX IMVI = test system: LOX IMVI
MOLT-4 = test system: MOLT-4
IGROV-1 = test system: IGROV-1
Malme-3M = test system: Malme-3M
KM12 = test system: KM12
MDA-N = test system: MDA-N
PC-3 = test system: PC-3
SN12C = test system: SN12C
NCI-H460 = test system: NCI-H460
SK-OV-3 = test system: SK-OV-3
TK-10 = test system: TK-10
EKVX = test system: EKVX
SNB-19 = test system: SNB-19
786-0 = test system: 786-0
ACHN = test system: ACHN
Hs-578T = test system: Hs-578T
M14 = test system: M14
MCF7 = test system: MCF7
HL-60 = test system: HL-60
UO-31 = test system: UO-31
HOP-92 = test system: HOP-92
COLO 205 = test system: COLO 205
NCI/ADR-RES = test system: NCI/ADR-RES
HT-29 = test system: HT-29
NCI-H226 = test system: NCI-H226
SW-620 = test system: SW-620
A498 = test system: A498
SK-MEL-28 = test system: SK-MEL-28
K562 = test system: K562
HCT-15 = test system: HCT-15
MDA-MB-231 = test system: MDA-MB-231
HCC 2998 = test system: HCC 2998
MDA-MB-435 = test system: MDA-MB-435
SF-268 = test system: SF-268
HOP-62 = test system: HOP-62
A549 = test system: A549
SK-MEL-5 = test system: SK-MEL-5
OVCAR-4 = test system: OVCAR-4
CCRF-CEM = test system: CCRF-CEM
SK-MEL-2 = test system: SK-MEL-2
SF-295 = test system: SF-295
BT-549 = test system: BT-549
NCI-H522 = test system: NCI-H522
HCT-116 = test system: HCT-116
OVCAR-3 = test system: OVCAR-3
OVCAR-5 = test system: OVCAR-5
OVCAR-8 = test system: OVCAR-8
CAKI-1 = test system: CAKI-1
UACC-62 = test system: UACC-62
SF-539 = test system: SF-539
NCI-H23 = test system: NCI-H23
DU-145 = test system: DU-145
RXF 393 = test system: RXF 393
U-251 = test system: U-251

For `CCC(=O)OCN1C(=O)C=CC1=O`, the GI50 (UACC-257) was 9.06 µM (inactive), the GI50 (LOX IMVI) was 18.5 µM (inactive) and the GI50 (MOLT-4) was 2.3 µM (inactive). For the same compound, the GI50 (IGROV-1) was 18.4 µM (inactive), the GI50 (Malme-3M) was 13.8 µM (inactive) and the GI50 (KM12) was 16.7 µM (inactive). The GI50 (MDA-N) was 16.9 µM (inactive), the GI50 (PC-3) was 17.1 µM (inactive) and the GI50 (SN12C) was 18.4 µM (inactive). For the same compound, the GI50 (NCI-H460) was 18.6 µM (inactive), the GI50 (SK-OV-3) was > 43.1 µM (inactive) and the GI50 (TK-10) was 6.21 µM (inactive). For the same compound, the GI50 (EKVX) was 19.8 µM (inactive), the GI50 (SNB-19) was 18.5 µM (inactive) and the GI50 (786-0) was 5.38 µM (inactive). The GI50 (ACHN) was 8.2 µM (inactive), the GI50 (Hs-578T) was 10.1 µM (inactive) and the GI50 (M14) was 18.3 µM (inactive). For the same compound, the GI50 (MCF7) was 20.1 µM (inactive), the GI50 (HL-60) was 7.19 µM (inactive) and the GI50 (UO-31) was 7.91 µM (inactive). For the same compound, the GI50 (HOP-92) was 15.2 µM (inactive), the GI50 (COLO 205) was 4.28 µM (inactive) and the GI50 (NCI/ADR-RES) was 24 µM (inactive). For the same compound, the GI50 (HT-29) was 17.9 µM (inactive), the GI50 (NCI-H226) was 41.9 µM (inactive) and the GI50 (SW-620) was 2.01 µM (inactive). For the same compound, the GI50 (A498) was > 44.5 µM (inactive), the GI50 (SK-MEL-28) was 18.6 µM (inactive) and the GI50 (K562) was 3.26 µM (inactive). For the same compound, the GI50 (HCT-15) was 22.9 µM, the GI50 (MDA-MB-231) was 18.7 µM (inactive) and the GI50 (HCC 2998) was 18.6 µM (inactive). For the same compound, the GI50 (MDA-MB-435) was 15.2 µM (inactive), the GI50 (SF-268) was 17.1 µM (inactive) and the GI50 (HOP-62) was 17.8 µM (inactive). The GI50 (A549) was 18.7 µM (inactive), the GI50 (SK-MEL-5) was 27.5 µM (inactive) and the GI50 (OVCAR-4) was 17.6 µM (inactive). The GI50 (CCRF-CEM) was 0.445 µM (active), the GI50 (SK-MEL-2) was 15.7 µM (inactive) and the GI50 (SF-295) was > 44.7 µM (inactive). For the same compound, the GI50 (BT-549) was 18.5 µM (inactive), the GI50 (NCI-H522) was 1.91 µM (inactive) and the GI50 (HCT-116) was 16.2 µM (inactive). The GI50 (OVCAR-3) was 7.16 µM (inactive), the GI50 (OVCAR-5) was 18.2 µM (inactive) and the GI50 (OVCAR-8) was 18.3 µM (inactive). The GI50 (CAKI-1) was 5.08 µM (inactive), the GI50 (UACC-62) was 17 µM (inactive) and the GI50 (SF-539) was 18.3 µM (inactive). For the same compound, the GI50 (NCI-H23) was 18 µM (inactive), the GI50 (DU-145) was 16.6 µM (inactive) and the GI50 (RXF 393) was 16.2 µM (inactive). The GI50 (U-251) was 17.6 µM (inactive).
